Source: US12167990B2, “Vitamin composition” (SOCIÉTË DES PRODUITS NESTLË S.A., priority 2016, dated 2024)

Experiment: Storage test at 60° C. and 68% relative humidity, vitamin A analysed by UPLC
Assay type: physicochemical
Details: storage at 60° C. and 68% RH; 0.825 wt. % vitamin A palmitate in oil; FIGS. 1 to 7
Description: Palm oil (SUNIA), and vitamin A palmitate (Vitamin A Palmitate 1.7 MIU/g-DSM) were heated in an oven at 60°. Vitamin A palmitate was not held above 60° C. for longer than 5 minutes to avoid possible degradation. The oil was mixed with vitamin A palmitate in a 0.5 liter Schott bottle and then stirred for 10 minutes in a 50° C. water bath. Initial vitamin A palmitate content was 0.825% in oil (a vitamin A palmitate content of 0.165 wt. % in powdered bran). The total amount of lipid was 100 g. A quantity of 10 g of lipid containing vitamin A palmitate was then mixed with 40 g of powdered rice bran with or without phytic acid (Herba Ingredients) in a mortar during 5 minutes. […]
A quantity of 10 g of lipid containing 0.825 wt. % of vitamin A palmitate was mixed with 40 g of wheat bran in a mortar during 5 minutes. […]
A quantity of 10 g of lipid containing 0.825 wt. % of vitamin A palmitate was mixed with 40 g of maltodextrin DE21 in a mortar during 5 minutes. […]
A quantity of 10 g of lipid containing 0.825 wt. % of vitamin A palmitate and 1.87 g of iron pyrophosphate powder were mixed with 38.13 g of powdered rice bran (Herba Ingredients) in a mortar during 5 minutes. […]
For the storage tests, the crystallizing dishes were transferred into a climatic chamber regulated at 60° C. and 68% relative humidity, before being analyzed. […]

CCCCCCCCCCCCCCCC(=O)OC/C=C(C)/C=C/C=C(C)/C=C/C1=C(C)CCCC1(C)C [vitamin A palmitate, retinyl palmitate]
vitamin A stability (degradation curves): very sensitive to temperature and degrades fast
